Patent US20230167467A1, “METHODS AND COMPOSITIONS FOR THE PRODUCTION OF ISOBUTENE” (University of Alaska Anchorage, priority 2020, published 2023)
Converted amounts (≈) assume the structure as drawn. Where two headings read alike, the source gives them in different places.

How the values were obtained:
[1] = at 20° C.; cited from earlier work
[2] = test system: Engineered strains of E. coli; format: cell-based
3-HIV = settings: expressed in E. coli, plasmid based system, synthetic media; cited from earlier work
[3] = cited from earlier work; for Isobutene production: purified M3K
[4] = after solvent exposure, vs positive control

C=C(C)C [isobutene]
aqueous solubility [1]: 30 µg/mL (≈ 535 µM) | expression of accBC (fatty acid biosynthesis) [2]: downregulated | expression of bssRS (decreasing biofilm material) [2]: upregulated | expression of chaperone genes groLS and dnaJK [2]: increased expression | expression of gad genes [2]: increase in expression | expression of gadABCE (acid resistance via GABA production) [2]: upregulated | expression of glpABC (glycerol to glycerone phosphate) [2]: increased in expression | expression of heat shock proteins and chaperones hslJORUV [2]: no significant changes in expression | expression of ibpAB [2]: strong upregulation | expression of ibpAB and clpAB (protein protection and repair) [2]: increased | expression of marA [2]: upregulated | change in expression of gene adiA [2, 4]: 0.47 ± 0.86 | change in expression of gene adiC [2, 4]: −1.83 ± 1.03 | change in expression of gene adiY [2, 4]: 0.21 ± 0.65 | change in expression of gene bhsA [2, 4]: 0.43 ± 0.86 | change in expression of gene bssR [2, 4]: 3.93 ± 0.44 | change in expression of gene bssS [2, 4]: 3.75 ± 0.84 | change in expression of gene clpA [2, 4]: 1.73 ± 0.64 | change in expression of gene clpB [2, 4]: 2.85 ± 0.69 | change in expression of gene clpP [2, 4]: 0.09 ± 0.59 | change in expression of gene coaA [2, 4]: −4.22 ± 0.95 | change in expression of gene coaD [2, 4]: −3.52 ± 1.24 | change in expression of gene cspA [2, 4]: −8.13 ± 0.67 | change in expression of gene cspB [2, 4]: −9.03 ± 1.74 | change in expression of gene cspC [2, 4]: −2.50 ± 0.94 | change in expression of gene cspD [2, 4]: 3.12 ± 0.58 | change in expression of gene cspE [2, 4]: −0.85 ± 0.63 | change in expression of gene cspF [2, 4]: −7.27 ± 1.56 | change in expression of gene dhaK [2, 4]: 2.25 ± 0.59 | change in expression of gene dhaL [2, 4]: 0.48 ± 0.65 | change in expression of gene dnaJ [2, 4]: 0.17 ± 0.70 | change in expression of gene dnaK [2, 4]: 2.71 ± 0.66 | change in expression of gene fabA [2, 4]: −2.35 ± 0.81 | change in expression of gene fabB [2, 4]: −0.08 ± 0.68 | change in expression of gene fabD [2, 4]: −1.92 ± 0.54 | change in expression of gene flgA [2, 4]: −3.93 ± 1.72 | change in expression of gene flgB [2, 4]: −7.15 ± 1.90 | change in expression of gene flgC [2, 4]: −8.24 ± 2.24 | change in expression of gene flgD [2, 4]: −6.54 ± 2.06 | change in expression of gene flgE [2, 4]: −7.58 ± 1.51 | change in expression of gene flgF [2, 4]: −7.63 ± 1.96 | change in expression of gene flgG [2, 4]: −6.35 ± 1.72 | change in expression of gene flgH [2, 4]: −4.44 ± 1.88 | change in expression of gene gabD [2, 4]: −0.64 ± 1.36 | change in expression of gene gabP [2, 4]: −3.65 ± 1.55 | change in expression of gene gabT [2, 4]: −1.79 ± 1.38 | change in expression of gene gadA [2, 4]: 1.22 ± 0.68 | change in expression of gene gadB [2, 4]: 2.70 ± 0.79 | change in expression of gene gadC [2, 4]: 3.17 ± 0.80 | change in expression of gene gadE [2, 4]: 1.75 ± 0.60 | change in expression of gene gadW [2, 4]: −4.21 ± 1.02 | change in expression of gene gadX [2, 4]: −1.69 ± 0.57 | change in expression of gene gadY [2, 4]: −1.72 ± 0.78 | change in expression of gene glpA [2, 4]: 9.06 ± 0.87 | change in expression of gene glpB [2, 4]: 6.10 ± 0.63 | change in expression of gene glpC [2, 4]: 6.02 ± 0.80 | change in expression of gene groL [2, 4]: 2.61 ± 0.57 | change in expression of gene groS [2, 4]: 1.62 ± 0.50 | change in expression of gene hchA [2, 4]: 3.41 ± 0.60 | change in expression of gene hslJ [2, 4]: −1.24 ± 0.71 | change in expression of gene hslO [2, 4]: −0.29 ± 0.66 | change in expression of gene hslR [2, 4]: −0.04 ± 0.67 | change in expression of gene hslU [2, 4]: 0.23 ± 0.56 | change in expression of gene hslV [2, 4]: −1.15 ± 0.66 | change in expression of gene ibpA [2, 4]: 3.97 ± 1.21 | change in expression of gene ibpB [2, 4]: 3.99 ± 1.50 | change in expression of gene lhgO [2, 4]: −1.00 ± 1.77 | change in expression of gene lipA [2, 4]: −1.56 ± 0.63 | change in expression of gene lipB [2, 4]: −4.07 ± 0.88 | change in expression of gene narG [2, 4]: 4.31 ± 0.65 | change in expression of gene narH [2, 4]: 3.55 ± 0.61 | change in expression of gene narI [2, 4]: 1.31 ± 0.94 | change in expression of gene narJ [2, 4]: 2.32 ± 0.68 | change in expression of gene narK [2, 4]: −0.07 ± 0.89 | change in expression of gene potA [2, 4]: −5.02 ± 0.89 | change in expression of gene potB [2, 4]: −4.42 ± 1.50 | change in expression of gene potC [2, 4]: −3.91 ± 1.44 | change in expression of gene pspA [2, 4]: 7.14 ± 0.55 | change in expression of gene pspB [2, 4]: 4.56 ± 0.68 | change in expression of gene rpoA [2, 4]: −0.01 ± 0.44 | change in expression of gene rpoB [2, 4]: −0.34 ± 0.40 | change in expression of gene rpoC [2, 4]: −0.44 ± 0.39 | change in expression of gene rpoD [2, 4]: −0.24 ± 0.70 | change in expression of gene rpoE [2, 4]: −1.87 ± 0.62 | change in expression of gene rpoH [2, 4]: 0.42 ± 0.52 | change in expression of gene rpoN [2, 4]: −1.57 ± 0.49 | change in expression of gene rpoS [2, 4]: 0.24 ± 0.48 | change in expression of gene rpoZ [2, 4]: −2.12 ± 0.55 | change in expression of gene spy [2, 4]: 2.48 ± 0.88 | change in expression of gene tatA [2, 4]: −1.83 ± 0.52 | change in expression of gene tatB [2, 4]: −2.68 ± 0.61 | change in expression of gene tatC [2, 4]: −3.61 ± 1.20 | change in expression of gene tatD [2, 4]: −4.46 ± 1.28 | change in expression of gene tatE [2, 4]: 0.70 ± 0.64 | number of genes with significant changes in expression ([2]; vs control, Bon Ferroni corrected p-value<0.05): 1384 genes

B1: M3K: mevalonate-3-kinase of Picrophilus torridus, enzyme and gene/transcript (optimized gene SEQ ID NO:1) (protein)
chain: MENYNVKTRAFPTIGIILLGGISDKKNRIPLHTTAGIAYTGINNDVYTETKLYVSKDEKSYIDGKEIDLNSDRSPSKVIDKFKHEILMRVNLDDENNLSIDSRNFNILSGSSDSGAAALGECIESIFEYNINIFTFENDLQRISESVGRSLYGGLTVNYANGRESLTEPLLEPEAFNNFTIIGAHFNIDRKPSNEIHENIIKHENYRERIKSAERKAKKLEELSRNANIKGIFELAESDTVEYHKMLHDVGVDIINDRMENLIERVKEMKNNFWNSYIVTGGPNVFVITEKKDVDKAMEGLNDLCDDIRLLKVAGKPQVISKNF
modifications: optimized gene; M3K optimized gene
isobutene production rates (3-HIV): up to 507 pmol min^−1 g cells^−1 | highest overall bioproduction of isobutene ([3]; purified M3K enzyme with 3-HIV, 50° C.): 2,880±140 pmol/min*mg protein | Isobutene production ([3]; 30° C.): 26±2 pmol*min-1 *mg protein | Isobutene production ([3]; 50° C.): 2,880±140 pmol*min-1 *mg protein
